How the values were obtained:
Assay in all cases: 5-day cell proliferation assay (CTG)
Format in all cases: cell-based
[1] = system: U937; conditions: Homo sapiens, U-937, 120 h, U937, Leukemia
Procedure: (§1) For screening using a proliferation assay, the cells used were cultured at 37° C. with 5% CO2, except for those being cultured with L-15 medium (37° C. and 100% air, TABLE 7). Compound stock solutions (10 mM) were made in sterile water, aliquoted and stored at room temperature. Cisplatin was used as reference Control. Plastic consumables, culture media and supplements were purchased from well-known suppliers (TABLE 8).
(§2) Cell seeding (day −1). When necessary, cells were trypsinized using standard methods (see e.g. example 01). Cells were collected and resuspended in 5-6 mL of appropriate culture medium, counted and diluted to the needed density. Fifty-four μl (microliter) cells were seeded per well in a 384-well plate. Extra four wells per cell line were seeded on an additional plate for Day 0 reading (baseline cell density). Cells were incubated at 37° C. overnight.
(§3) Compound treatment and Day 0 reading (day 0). Tenfold final concentration of test compounds and Cisplatin were prepared in cell culture media (work dilutions). Six μl of work dilution solutions were dispensed into the corresponding wells in 384-well plates to bring the total volume up to 60 μl. Conditions were tested in triplicate. The plates were then incubated at 37° C. for five days. For the day 0 reading, 30 μl of CTG and 6 μl cell culture medium were added to the day 0 plates, contents mixed for 2 min on a plate shaker, and the plates incubated for 10 min at room temperature in the dark. Luminescence was recorded on an EnVision Multi Label Reader (2104-0010A, PerkinElmer, USA).
(§4) Endpoint CTG reading (day 5). The amounts of cells in the plates was determined by endpoint CTG-test. Thirty μl of CTG were added to the 60 μl of cell culture per well, contents mixed for 2 min on a plate shaker, and the plates incubated for 10 min at room temperature in the dark. Luminescence was recorded on an EnVision Multi Label Reader.
(§5) Data analysis. Fifty percent growth inhibition concentrations (GI50) were calculated based on percentage of control data (untreated cells) from each cell line (TABLE 5 (this example) and TABLE 6). Curves were fitted using a nonlinear regression model with a sigmoidal dose response. Examples of obtained curves are depicted in FIG. 2A-2F.

[2] = system: Caco-2; conditions: Homo sapiens, 120 h, Caco-2, Colorectal
Procedure: as §1, §2, §3, §4, §5

[3] = system: Malme-3M; conditions: Homo sapiens, 120 h, Skin, highest tested concentration 10 μM
Procedure: as §1, §2, §3, §4, §5

[4] = system: SK-MEL28; conditions: Homo sapiens, SK-MEL-28, 120 h, SK-MEL28, Skin
Procedure: as §1, §2, §3, §4, §5

[5] = system: IM95m; conditions: Homo sapiens, 120 h, Stomach/Gastric
Procedure: as §1, §2, §3, §4, §5

[6] = system: CaSki; conditions: Homo sapiens, Ca-Ski, 120 h, Cervix
Procedure: as §1, §2, §3, §4, §5

[7] = system: Raji; conditions: Homo sapiens, 120 h, Lymphoma
Procedure: as §1, §2, §3, §4, §5

[8] = system: MIA PaCa-2; conditions: Homo sapiens, 120 h, MIA PaCa-2, Pancreas
Procedure: as §1, §2, §3, §4, §5

[9] = system: SF268; conditions: Homo sapiens, SF-268, 120 h, SF268, Brain/Nerves
Procedure: as §1, §2, §3, §4, §5

[10] = system: Kasumi-1; conditions: Homo sapiens, 120 h, Kasumi-1, Leukemia
Procedure: as §1, §2, §3, §4, §5

[11] = system: MOLM-13; conditions: Homo sapiens, 120 h, MOLM-13, Leukemia
Procedure: as §1, §2, §3, §4, §5

[12] = system: MS751; conditions: Homo sapiens, 120 h, MS751, Cervix
Procedure: as §1, §2, §3, §4, §5

[13] = system: K562; conditions: Homo sapiens, 120 h, K562, Leukemia
Procedure: as §1, §2, §3, §4, §5

[14] = system: WM-266-4; conditions: Homo sapiens, 120 h, WM-266-4, Skin
Procedure: as §1, §2, §3, §4, §5

[15] = system: SK-BR-3; conditions: Homo sapiens, 120 h, SK-BR-3, Breast
Procedure: as §1, §2, §3, §4, §5

[16] = system: Daudi; conditions: Homo sapiens, 120 h, Lymphoma
Procedure: as §1, §2, §3, §4, §5

[17] = system: A375; conditions: Homo sapiens, A-375, 120 h, A375, Skin
Procedure: as §1, §2, §3, §4, §5

[18] = system: MCF7; conditions: Homo sapiens, 120 h, MCF7, Breast
Procedure: as §1, §2, §3, §4, §5

[19] = system: KYSE-150; conditions: Homo sapiens, 120 h, KYSE-150, Oesophagus
Procedure: as §1, §2, §3, §4, §5

[20] = system: Jurkat; conditions: Homo sapiens, 120 h, Leukemia
Procedure: as §1, §2, §3, §4, §5

[21] = system: OVCAR-4; conditions: Homo sapiens, 120 h, OVCAR-4, Ovary
Procedure: as §1, §2, §3, §4, §5

[22] = system: BT-20; conditions: Homo sapiens, 120 h, BT-20, Breast
Procedure: as §1, §2, §3, §4, §5

[23] = system: H460; conditions: Homo sapiens, NCI-H460, 120 h, H460, Lung
Procedure: as §1, §2, §3, §4, §5

[24] = system: SK-MEL5; conditions: Homo sapiens, SK-MEL-5, 120 h, SK-MEL5, Skin
Procedure: as §1, §2, §3, §4, §5

[25] = system: DU145; conditions: Homo sapiens, DU-145, 120 h, DU145, Prostate
Procedure: as §1, §2, §3, §4, §5

[26] = system: Ramos; conditions: Homo sapiens, 120 h, Lymphoma
Procedure: as §1, §2, §3, §4, §5

[27] = system: A549; conditions: Homo sapiens, 120 h, A549, Lung
Procedure: as §1, §2, §3, §4, §5

[28] = system: SiHa; conditions: Homo sapiens, 120 h, Cervix
Procedure: as §1, §2, §3, §4, §5

[29] = system: HT-3; conditions: Homo sapiens, 120 h, HT-3, Cervix
Procedure: as §1, §2, §3, §4, §5

[30] = system: H4; conditions: Homo sapiens, 120 h, H4, Brain/Nerves
Procedure: as §1, §2, §3, §4, §5

## CC(C)C[C@@H]1NCCN([C@@H](CC(C)C)C(=O)N2CCC3(C[C@@H]2C)OCC(CN2CCCC2)CO3)C1=O (stereo partly drawn) [Compound 258, (3S)-1-[(2S)-4-methyl-1-oxo-1-[(3s,6s,8S)-8-methyl-3-(pyrrolidin-1-ylmethyl)-1,5-dioxa-9-azaspiro[5.5]undec-an-9-yl]pentan-2-yl]-3-(2-methylpropyl)piper-azin-2-one (^≠), isomer Z]
[1]
  GI50: 22 nM
[2]
  GI50: 10 nM
[3]
  GI50: > 10000 nM
[4]
  GI50: 50 nM
[5]
  GI50: 4 nM
[6]
  GI50: 35 nM
[7]
  GI50: 28 nM
[8]
  GI50: 11 nM
[9]
  GI50: 30 nM
[10]
  GI50: 19 nM
[11]
  GI50: 4 nM
[12]
  GI50: 51 nM
[13]
  GI50: 17 nM
[14]
  GI50: 41 nM
[15]
  GI50: 12 nM
[16]
  GI50: 80 nM
[17]
  GI50: 6 nM
[18]
  GI50: 55 nM
[19]
  GI50: 11 nM
[20]
  GI50: 18 nM
[21]
  GI50: 12 nM
[22]
  GI50: 15 nM
[23]
  GI50: 11 nM
[24]
  GI50: 51 nM
[25]
  GI50: 7 nM
[26]
  GI50: 27 nM
[27]
  GI50: 10 nM
[28]
  GI50: 52 nM
[29]
  GI50: 330 nM
[30]
  GI50: 11 nM

— US20250115571A1, “OXOPIPERAZINE DERIVATIVES” (Inthera Bioscience AG, priority 2017, published 2025)
